Key:
[1] = biological target: T1, recombinant human pancreatic GLK (Homo sapiens, UniProt P35557); test: Enzymatic activity of glucokinase (GLK activation, G-6-P dehydrogenase coupled, OD 340 nm); type: biochemical
T1 construct: 6-His (N); made in house; host or cells: E. coli BL21
T1 sequence (P35557 1-465): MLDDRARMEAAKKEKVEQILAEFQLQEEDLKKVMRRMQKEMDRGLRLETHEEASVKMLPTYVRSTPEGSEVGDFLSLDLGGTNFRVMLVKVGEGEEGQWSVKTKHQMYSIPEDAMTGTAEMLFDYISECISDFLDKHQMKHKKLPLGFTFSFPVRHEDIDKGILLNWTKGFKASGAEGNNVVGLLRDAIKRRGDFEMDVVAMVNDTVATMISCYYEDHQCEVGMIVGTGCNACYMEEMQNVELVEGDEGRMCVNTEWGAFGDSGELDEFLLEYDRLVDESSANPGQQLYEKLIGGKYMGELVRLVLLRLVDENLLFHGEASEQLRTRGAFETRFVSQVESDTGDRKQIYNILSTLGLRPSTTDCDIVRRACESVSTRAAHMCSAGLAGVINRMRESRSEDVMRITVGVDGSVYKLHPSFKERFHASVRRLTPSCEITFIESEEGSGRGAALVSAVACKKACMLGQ

[2] = test system: Zucker obese fa/fa rats; test: Oral Glucose Tolerance Test (OGTT); type: in vivo, rat; conditions: 10 mg/kg, given orally 120 minutes before glucose 2 g/kg; percent inhibition of blood glucose AUC vs vehicle
Protocol: The animals were fasted for 2 hours before use for experiments. A test compound or a vehicle was given orally 120 minutes before oral administration of a glucose solution at a dose of 2 g/kg body weight. Blood glucose levels were measured using a Accucheck glucometer from tail bled samples taken at different time points before and after administration of glucose (time course of 60 minutes). […] Percent inhibition was determined using the AUC in the vehicle-control group as zero percent inhibition.

[3] = Oral exposure; type: in vivo; conditions: compared with Example II107 in WO 03/015774

COC[C@H](C)Oc1cc(Oc2ccc(S(C)(=O)=O)cc2)cc(C(=O)Nc2nccs2)c1 [Example 11b, 3-[(1S)-2-methoxy-(1-methylethyl)oxy]-5-[4-(methylsulfonyl)phenoxy]-N-1,3-thiazol-2-ylbenzamide]
EC50 values, Example 11b compared with Example II107 in WO 03/015774 ([1]; comparison in words): broadly similar | EC50 ([1]; read-out: activating activity for glucokinase, EC50): 30 nM | OGTT activity [2]: 29% | oral exposure [3]: superior oral exposure
